{"source": "patent US12568967B2", "about": "“Compositions comprising pyridine carboxylate herbicides with synthetic auxin herbicides or auxin transport inhibitors” (priority 2018, dated 2026)", "key": {"[1]": {"system": "Salsola kali (Russian thistle, SASKR)", "assay": "Greenhouse postemergence trial SASKR;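 on all read-outs here: greenhouse plants sprayed at second or third true leaf stage, injury rated by eye after 20-22 d against solvent-blank controls, 0 meaning no injury, 100 complete kill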", "type": "in vivo"}, "[2]": {"system": "Viola tricolor (wild pansy, VIOTR)", "assay": "Greenhouse postemergence trial VIOTR;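 on all read-outs here: greenhouse plants sprayed at second to third true leaf stage, injury rated visually after 20-22 d against solvent-blank sprayed controls, 0 meaning no injury and 100 complete kill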"}, "[3]": {"system": "Anthemis arvensis (field chamomile, ANTAR)", "assay": "Greenhouse postemergence trial ANTAR", "type": "in vivo", "conditions": "ANTAR; for % visual injury Obs: alone; for % visual injury, Obs: applied alone"}, "[4]": {"system": "Alopecurus myosuroides (blackgrass, ALOMY)", "assay": "Greenhouse postemergence trial ALOMY", "type": "in vivo", "conditions": "Compound A 10 g/ha", "method": "Seeds of the desired test plant species were planted in a 90:10% v/v (volume/volume) mixture of PRO-MIX® BX (Premier Tech Horticulture, Quakertown, PA, USA) and PROFILE® GREENS GRADE™ (Profile Products LLC, Buffalo Grove, IL, USA) planting mixture, which typically has a pH of 5.2 to 6.2 and an organic matter content of at least 50 percent, in plastic pots with a surface area of 103.2 square centimeters (cm^2). […] The plants were grown for 7-36 days (d) in a greenhouse with an approximate 14-hour (h) photo-period which was maintained at about 23° C. during the day and 22° C. during the night. Nutrients and water were added on a regular basis and supplemental lighting was provided with overhead metal halide 1000-Watt lamps as necessary. The plants were employed for testing when they reached the second or third true leaf stage.\nEmulsifiable concentrates of each of each pyridine carboxylate herbicide (Compound A or Compound B) were prepared at 100 grams acid equivalent per liter (g ae/L). The emulsifiable concentrates also included a safener, cloquintocet-mexyl, at 120 grams active ingredient per liter (g ai/L), unless otherwise noted below. An aliquot of each emulsifiable concentrate was placed in a 25 mL glass vial and diluted with an aqueous mixture of 1.25% (v/v) ACTIROB® B esterified rapeseed oil (Bayer Crop Science, Research Triangle Park, NC, USA) or MSO® Concentrate with LECI-TECH® methylated soybean oil (Loveland Products, Loveland, CO, USA) to obtain concentrated stock solutions at the highest application rate for each herbicide, based upon a 12 milliliter (mL) application volume at a rate of 187 liters per hectare (L/ha). The concentrated stock solutions were further diluted with an aqueous mixture of 1.25% v/v ACTIROB® B or MSO® Concentrate with LECI-TECH® to obtain stock solutions at reduced application rates for each herbicide. Spray solutions of the herbicide combinations (Compound A or Compound B plus synthetic auxin herbicide or auxin transport inhibitor) were prepared by adding weighed amounts or aliquots of the synthetic auxin herbicide or auxin transport inhibitor to the stock solutions of Compound A or Compound B to form 12-mL spray solutions in two-way combinations. […]\nThe treated plants and control plants were placed in a greenhouse as described above and watered by sub-irrigation to prevent wash-off of the test compounds. After 20-22 d, the condition of the test plants as compared with that of the control plants was determined visually and scored on a scale of 0 to 100 percent where 0 corresponds to no injury and 100 corresponds to complete kill."}, "[5]": {"system": "Triticum aestivum (spring wheat, TRZAS)", "type": "in vivo"}, "[6]": {"system": "Capsella bursa-pastoris (shepherd's purse, CAPBP)", "assay": "Greenhouse postemergence trial CAPBP", "type": "in vivo", "conditions": "CAPBP; for % visual injury, Obs: applied alone"}, "[7]": {"conditions": "Viola tricolor, post-emergence, read-out: % visual injury Obs"}, "[8]": {"conditions": "Triticum aestivum (spring wheat, TRZAS), in vivo"}}, "note": "Values joined by “and” are separate entries in the source; they are usually repeats but may differ in a detail not shown here. Equal values may be shown once. Read-outs that look alike come from different tables or passages of the source."}
{"smiles": "N#CCOC(=O)c1nc(-c2ccc3cc[nH]c3c2F)c(F)c(N)c1Cl", "note": "[Compound A, cyanomethyl 4-amino-3-chloro-5-fluoro-6-(7-fluoro-1H-indol-6-yl)pyridine-2-carboxylate]", "values": [{"measurement": "SASKR % visual injury Obs", "setting": "[1]; Compound A 10 g/ha (Table 43)", "result": 65, "unit": "%"}, {"measurement": "SASKR % visual injury Obs", "setting": "[1]; Compound A 10 g/ha (Table 44)", "result": 65, "unit": "%"}, {"measurement": "% visual injury, Obs", "setting": "[1]; SASKR, Compound A 10 g/ha", "result": 65, "unit": "%"}, {"measurement": "visual injury, Obs", "setting": "[1]; SASKR, Compound A 10 g/ha alone", "result": 50, "unit": "%"}, {"measurement": "visual injury, Obs", "setting": "[1]; SASKR, Compound A 15 g/ha alone", "result": 50, "unit": "%"}, {"measurement": "% visual injury (Obs)", "setting": "[1]; SASKR, alone, 10 g/ha", "result": 63, "unit": "%"}, {"measurement": "% visual injury Obs", "setting": "[1]; SASKR, alone, 10 g/ha", "result": 50, "unit": "%"}, {"measurement": "% visual injury Obs", "setting": "[1]; SASKR, alone, 15 g/ha", "result": 50, "unit": "%"}, {"measurement": "% visual injury, Obs", "setting": "[1]; SASKR, applied alone, 10 g/ha", "result": "50% and 63%"}, {"measurement": "% visual injury, Obs", "setting": "[1]; SASKR, applied alone, 15 g/ha", "result": 50, "unit": "%"}, {"measurement": "pest or weed control at […]", "setting": "[1]; Salsola kali, post-emergence, SASKR, Compound A 7.5 g/ha, read-out: % visual injury Obs", "result": 30, "unit": "%"}, {"measurement": "pest or weed control at 10 g/ha", "setting": "[1]; Salsola kali, post-emergence, SASKR, Compound A 10 g/ha, read-out: % visual injury Obs", "result": 50, "unit": "%"}, {"measurement": "pest or weed control at 15 g/ha", "setting": "[1]; Salsola kali, post-emergence, SASKR, Compound A 15 g/ha, read-out: % visual injury Obs", "result": 50, "unit": "%"}, {"measurement": "VIOTR Obs (% visual injury)", "setting": "[2]; Compound A 10 g/ha", "result": 18, "unit": "%"}, {"measurement": "VIOTR Obs (% visual injury)", "setting": "[2]; Compound A 10 g/ha, without safener", "result": 15, "unit": "%"}, {"measurement": "% visual injury Obs", "setting": "[2]; VIOTR, Compound A 10 g/ha", "result": 30, "unit": "%"}, {"measurement": "% visual injury, Obs", "setting": "[2]; VIOTR, Compound A 10 g/ha", "result": 15, "unit": "%"}, {"measurement": "visual injury, Obs", "setting": "[2]; VIOTR, Compound A 10 g/ha alone", "result": 30, "unit": "%"}, {"measurement": "visual injury, Obs", "setting": "[2]; VIOTR, Compound A 15 g/ha alone", "result": 50, "unit": "%"}, {"measurement": "% visual injury (Obs)", "setting": "[2]; VIOTR, alone, 10 g/ha", "result": 23, "unit": "%"}, {"measurement": "% visual injury Obs", "setting": "[2]; VIOTR, alone, 10 g/ha", "result": 30, "unit": "%"}, {"measurement": "% visual injury Obs", "setting": "[2]; VIOTR, alone, 15 g/ha", "result": 50, "unit": "%"}, {"measurement": "% visual injury, Obs", "setting": "[2]; VIOTR, applied alone, 10 g/ha", "result": 30, "unit": "%"}, {"measurement": "% visual injury, Obs", "setting": "[2]; VIOTR, applied alone, 15 g/ha", "result": 50, "unit": "%"}, {"measurement": "pest or weed control at 10 g/ha", "setting": "[2]; [7]", "result": 30, "unit": "%"}, {"measurement": "pest or weed control at 15 g/ha", "setting": "[2]; [7]", "result": 50, "unit": "%"}, {"measurement": "visual injury, Obs", "setting": "[3]; Compound A 10 g/ha alone", "result": 100, "unit": "%"}, {"measurement": "visual injury, Obs", "setting": "[3]; Compound A 15 g/ha alone", "result": 100, "unit": "%"}, {"measurement": "% visual injury Obs", "setting": "[3]; 10 g/ha", "result": 100, "unit": "%"}, {"measurement": "% visual injury Obs", "setting": "[3]; 15 g/ha", "result": 100, "unit": "%"}, {"measurement": "% visual injury, Obs", "setting": "[3]; 10 g/ha", "result": 100, "unit": "%"}, {"measurement": "% visual injury, Obs", "setting": "[3]; 15 g/ha", "result": 100, "unit": "%"}, {"measurement": "pest or weed control at […]", "setting": "[3]; Anthemis arvensis, post-emergence, Compound A 7.5 g/ha, read-out: % visual injury Obs", "result": 95, "unit": "%"}, {"measurement": "pest or weed control at 10 g/ha", "setting": "[3]; Anthemis arvensis, post-emergence, Compound A 10 g/ha, read-out: % visual injury Obs", "result": 100, "unit": "%"}, {"measurement": "pest or weed control at 15 g/ha", "setting": "[3]; Anthemis arvensis, post-emergence, Compound A 15 g/ha, read-out: % visual injury Obs", "result": 100, "unit": "%"}, {"measurement": "% visual injury, Obs", "setting": "[4]; ALOMY", "result": 0, "unit": "%"}, {"measurement": "ALOMY Obs (% visual injury)", "setting": "[4]; without safener", "result": 0, "unit": "%"}, {"measurement": "TRZAS Obs (% visual injury)", "setting": "[5]; Compound A 10 g/ha", "result": 0, "unit": "%"}, {"measurement": "TRZAS % visual injury Obs", "setting": "[5]; Compound A 10 g/ha (Table 42)", "result": 0, "unit": "%"}, {"measurement": "TRZAS % visual injury Obs", "setting": "[5]; Compound A 10 g/ha (Table 43)", "result": 0, "unit": "%"}, {"measurement": "TRZAS % visual injury Obs", "setting": "[5]; Compound A 10 g/ha (Table 44)", "result": 0, "unit": "%"}, {"measurement": "% visual injury Obs", "setting": "[5]; TRZAS, Compound A 10 g/ha", "result": 0, "unit": "%"}, {"measurement": "% visual injury, Obs", "setting": "[5]; TRZAS, Compound A 10 g/ha", "result": 0, "unit": "%"}, {"measurement": "visual injury, Obs", "setting": "[5]; TRZAS, Compound A 10 g/ha alone", "result": 0, "unit": "%"}, {"measurement": "% visual injury Obs", "setting": "[5]; TRZAS, Compound A 15 g/ha", "result": 0, "unit": "%"}, {"measurement": "visual injury, Obs", "setting": "[5]; TRZAS, Compound A 15 g/ha alone", "result": 0, "unit": "%"}, {"measurement": "% visual injury (Obs)", "setting": "[5]; TRZAS, alone 10 g/ha", "result": 0, "unit": "%"}, {"measurement": "% visual injury Obs", "setting": "[5]; TRZAS, alone 10 g/ha", "result": 0, "unit": "%"}, {"measurement": "% visual injury Obs", "setting": "[5]; TRZAS, alone, 15 g/ha", "result": 0, "unit": "%"}, {"measurement": "% visual injury, Obs", "setting": "[5]; TRZAS, applied alone, 10 g/ha", "result": 0, "unit": "%"}, {"measurement": "% visual injury, Obs", "setting": "[5]; TRZAS, applied alone, 15 g/ha", "result": 0, "unit": "%"}, {"measurement": "% visual injury (crop phytotoxicity)", "setting": "[5]; [8]", "result": 0, "unit": "%"}, {"measurement": "% visual injury, Obs (crop phytotoxicity)", "setting": "[5]; [8]", "result": 0, "unit": "%"}, {"measurement": "% visual injury (crop phytotoxicity)", "setting": "[5]; c1-2 Compound A 7.5/10, c3 Quinclorac 140, c4-5 A 7.5/10 + Quinclorac 140 g/ha", "result": 0, "unit": "%"}, {"measurement": "% visual injury (crop phytotoxicity)", "setting": "[5]; c1-3 Compound A 7.5/10/15, c4-5 Fluroxypyr-MHE 100/140, c6-8, c9-11 A 7.5/10/15 + Fluroxypyr-MHE 100, 140 g/ha", "result": 0, "unit": "%"}, {"measurement": "% visual injury (crop phytotoxicity)", "setting": "[5]; c1-3 Compound A 7.5/10/15, c4 Aminopyralid 5, c5-7 A 7.5/10/15 + Aminopyralid 5 g/ha", "result": 0, "unit": "%"}, {"measurement": "% visual injury (crop phytotoxicity)", "setting": "[5]; c1-3 Compound A 7.5/10/15, c4 Halauxifen-methyl 6, c5-7 A 7.5/10/15 + Halauxifen-methyl 6 g/ha", "result": 0, "unit": "%"}, {"measurement": "visual injury, Obs", "setting": "[6]; Compound A 10 g/ha alone", "result": 50, "unit": "%"}, {"measurement": "visual injury, Obs", "setting": "[6]; Compound A 15 g/ha alone", "result": 85, "unit": "%"}, {"measurement": "% visual injury (Obs)", "setting": "[6]; alone 10 g/ha", "result": 78, "unit": "%"}, {"measurement": "% visual injury Obs", "setting": "[6]; alone 10 g/ha", "result": 50, "unit": "%"}, {"measurement": "% visual injury Obs", "setting": "[6]; alone, 15 g/ha", "result": 85, "unit": "%"}, {"measurement": "% visual injury, Obs", "setting": "[6]; 10 g/ha", "result": 50, "unit": "%"}, {"measurement": "% visual injury, Obs", "setting": "[6]; 15 g/ha", "result": 85, "unit": "%"}, {"measurement": "pest or weed control at […]", "setting": "[6]; Capsella bursa-pastoris, post-emergence, Compound A 7.5 g/ha, read-out: % visual injury Obs", "result": 50, "unit": "%"}, {"measurement": "pest or weed control at 10 g/ha", "setting": "[6]; Capsella bursa-pastoris, post-emergence, Compound A 10 g/ha, read-out: % visual injury Obs", "result": 50, "unit": "%"}, {"measurement": "pest or weed control at 15 g/ha", "setting": "[6]; Capsella bursa-pastoris, post-emergence, Compound A 15 g/ha, read-out: % visual injury Obs", "result": 85, "unit": "%"}]}
